Two compounds from ChEMBL document CHEMBL5291721, “A preclinical secondary pharmacology resource illuminates target-adverse drug reaction associations of marketed drugs” (Nat Commun, 2023) can be followed below.

The target of one experiment is T1, Progesterone receptor (Homo sapiens, UniProt P06401).
T1 sequence (P06401 whole entry): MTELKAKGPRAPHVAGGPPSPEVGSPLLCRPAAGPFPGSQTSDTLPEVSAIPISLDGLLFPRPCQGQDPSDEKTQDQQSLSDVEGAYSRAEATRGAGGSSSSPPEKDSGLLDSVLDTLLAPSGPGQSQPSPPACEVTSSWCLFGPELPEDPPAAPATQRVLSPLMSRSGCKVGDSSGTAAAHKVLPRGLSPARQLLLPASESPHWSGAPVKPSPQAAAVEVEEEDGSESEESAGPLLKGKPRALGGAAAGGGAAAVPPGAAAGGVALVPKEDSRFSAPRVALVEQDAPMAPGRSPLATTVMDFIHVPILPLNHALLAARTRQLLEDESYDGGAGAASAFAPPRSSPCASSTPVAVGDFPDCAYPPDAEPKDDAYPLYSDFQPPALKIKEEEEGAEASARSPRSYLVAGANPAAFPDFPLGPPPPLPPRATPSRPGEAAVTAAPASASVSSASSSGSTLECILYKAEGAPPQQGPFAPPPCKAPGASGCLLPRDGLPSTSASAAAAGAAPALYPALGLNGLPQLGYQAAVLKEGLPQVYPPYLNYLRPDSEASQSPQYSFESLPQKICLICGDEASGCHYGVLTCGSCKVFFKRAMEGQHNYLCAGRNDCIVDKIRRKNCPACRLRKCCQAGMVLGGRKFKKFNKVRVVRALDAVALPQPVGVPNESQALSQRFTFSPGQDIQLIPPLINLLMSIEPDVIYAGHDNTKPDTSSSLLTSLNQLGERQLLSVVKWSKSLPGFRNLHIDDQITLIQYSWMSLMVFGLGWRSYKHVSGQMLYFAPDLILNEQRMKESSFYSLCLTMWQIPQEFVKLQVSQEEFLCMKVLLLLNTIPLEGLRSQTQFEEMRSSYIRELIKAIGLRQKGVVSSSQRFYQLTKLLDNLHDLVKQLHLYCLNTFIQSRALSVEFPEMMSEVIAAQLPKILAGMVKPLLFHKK
The experiment is classed as functional.

Experiment [1] addresses T2, Alpha-2A adrenergic receptor (Homo sapiens, UniProt P08913).
T2 sequence (P08913 whole entry): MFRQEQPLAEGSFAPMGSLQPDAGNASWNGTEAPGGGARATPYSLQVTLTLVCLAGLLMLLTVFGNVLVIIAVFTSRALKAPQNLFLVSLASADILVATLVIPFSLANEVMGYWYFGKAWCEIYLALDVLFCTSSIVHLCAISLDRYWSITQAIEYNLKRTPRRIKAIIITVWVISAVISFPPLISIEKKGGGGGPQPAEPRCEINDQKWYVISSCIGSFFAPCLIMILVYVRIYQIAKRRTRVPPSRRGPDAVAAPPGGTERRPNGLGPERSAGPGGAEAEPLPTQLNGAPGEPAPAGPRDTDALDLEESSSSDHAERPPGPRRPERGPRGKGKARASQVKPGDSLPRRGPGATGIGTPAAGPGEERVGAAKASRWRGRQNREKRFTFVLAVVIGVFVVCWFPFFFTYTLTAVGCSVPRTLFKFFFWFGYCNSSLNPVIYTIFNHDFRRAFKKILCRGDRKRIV

The target in experiment [2] is T3, Alpha-1A adrenergic receptor (Homo sapiens, UniProt P35348).
T3 sequence (P35348 whole entry): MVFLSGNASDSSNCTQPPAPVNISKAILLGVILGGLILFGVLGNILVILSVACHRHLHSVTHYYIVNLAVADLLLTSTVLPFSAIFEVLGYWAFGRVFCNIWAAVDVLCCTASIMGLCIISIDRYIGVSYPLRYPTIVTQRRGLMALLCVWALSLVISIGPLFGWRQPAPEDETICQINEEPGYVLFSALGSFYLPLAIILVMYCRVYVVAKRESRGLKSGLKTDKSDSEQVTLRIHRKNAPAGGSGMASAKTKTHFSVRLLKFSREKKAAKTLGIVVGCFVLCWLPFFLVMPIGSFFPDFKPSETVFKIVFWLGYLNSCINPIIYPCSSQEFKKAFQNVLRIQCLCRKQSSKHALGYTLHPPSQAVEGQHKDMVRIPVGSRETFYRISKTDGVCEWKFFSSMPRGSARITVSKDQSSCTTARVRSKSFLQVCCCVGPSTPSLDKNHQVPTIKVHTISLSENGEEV
The class given is functional, cell-based.

Experiment [3] addresses T4, Alpha-2B adrenergic receptor (Homo sapiens, UniProt P18089).
T4 sequence (P18089 whole entry): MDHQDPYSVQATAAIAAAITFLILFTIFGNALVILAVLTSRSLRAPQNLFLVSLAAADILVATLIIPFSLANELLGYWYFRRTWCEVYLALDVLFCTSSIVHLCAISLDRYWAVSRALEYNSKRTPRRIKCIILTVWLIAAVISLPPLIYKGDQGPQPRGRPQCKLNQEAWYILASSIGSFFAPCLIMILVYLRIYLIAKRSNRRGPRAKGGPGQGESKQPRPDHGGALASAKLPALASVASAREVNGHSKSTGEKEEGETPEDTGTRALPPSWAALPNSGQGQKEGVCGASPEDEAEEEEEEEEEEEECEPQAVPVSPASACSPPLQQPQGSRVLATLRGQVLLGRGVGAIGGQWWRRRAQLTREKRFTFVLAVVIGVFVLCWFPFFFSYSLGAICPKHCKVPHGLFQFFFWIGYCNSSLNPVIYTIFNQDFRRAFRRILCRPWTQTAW

Experiment [4] deals with T5, Muscarinic acetylcholine receptor M1 (Homo sapiens, UniProt P11229).
T5 sequence (P11229 whole entry): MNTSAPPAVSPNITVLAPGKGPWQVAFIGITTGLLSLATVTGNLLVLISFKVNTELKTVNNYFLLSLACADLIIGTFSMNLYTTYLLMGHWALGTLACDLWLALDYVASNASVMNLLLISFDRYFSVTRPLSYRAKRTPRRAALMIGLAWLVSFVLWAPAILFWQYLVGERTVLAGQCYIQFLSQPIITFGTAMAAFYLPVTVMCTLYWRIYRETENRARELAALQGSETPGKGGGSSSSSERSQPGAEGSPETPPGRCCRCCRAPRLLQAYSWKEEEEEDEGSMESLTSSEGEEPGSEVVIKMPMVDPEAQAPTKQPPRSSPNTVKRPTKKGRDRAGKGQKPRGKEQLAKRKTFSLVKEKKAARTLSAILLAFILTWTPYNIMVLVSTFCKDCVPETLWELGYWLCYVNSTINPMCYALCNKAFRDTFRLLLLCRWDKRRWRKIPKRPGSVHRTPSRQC
The class given is functional, cell-based.

Experiment [5] has as its target Beta-2 adrenergic receptor (Homo sapiens, UniProt P07550).
For experiment [6], the target named is Muscarinic acetylcholine receptor M3 (Homo sapiens, UniProt P20309).
The target of experiment [7] is Voltage-dependent L-type calcium channel subunit alpha-1C (Rattus norvegicus, UniProt P22002). The class given is functional.
Also: assay procedure not described here.

Beta-2 adrenergic receptor, sequence (P07550 whole entry): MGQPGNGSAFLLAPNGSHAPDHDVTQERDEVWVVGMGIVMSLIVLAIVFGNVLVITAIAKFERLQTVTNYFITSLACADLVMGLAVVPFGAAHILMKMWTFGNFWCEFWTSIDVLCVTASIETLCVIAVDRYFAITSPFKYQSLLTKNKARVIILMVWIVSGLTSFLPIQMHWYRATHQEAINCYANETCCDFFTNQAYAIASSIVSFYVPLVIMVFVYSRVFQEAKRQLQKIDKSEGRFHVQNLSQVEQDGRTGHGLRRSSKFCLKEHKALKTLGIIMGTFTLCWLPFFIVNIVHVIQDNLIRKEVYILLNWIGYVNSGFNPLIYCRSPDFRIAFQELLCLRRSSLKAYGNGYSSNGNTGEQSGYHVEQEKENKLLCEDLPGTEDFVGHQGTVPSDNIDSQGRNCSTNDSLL
Muscarinic acetylcholine receptor M3, sequence (P20309 whole entry): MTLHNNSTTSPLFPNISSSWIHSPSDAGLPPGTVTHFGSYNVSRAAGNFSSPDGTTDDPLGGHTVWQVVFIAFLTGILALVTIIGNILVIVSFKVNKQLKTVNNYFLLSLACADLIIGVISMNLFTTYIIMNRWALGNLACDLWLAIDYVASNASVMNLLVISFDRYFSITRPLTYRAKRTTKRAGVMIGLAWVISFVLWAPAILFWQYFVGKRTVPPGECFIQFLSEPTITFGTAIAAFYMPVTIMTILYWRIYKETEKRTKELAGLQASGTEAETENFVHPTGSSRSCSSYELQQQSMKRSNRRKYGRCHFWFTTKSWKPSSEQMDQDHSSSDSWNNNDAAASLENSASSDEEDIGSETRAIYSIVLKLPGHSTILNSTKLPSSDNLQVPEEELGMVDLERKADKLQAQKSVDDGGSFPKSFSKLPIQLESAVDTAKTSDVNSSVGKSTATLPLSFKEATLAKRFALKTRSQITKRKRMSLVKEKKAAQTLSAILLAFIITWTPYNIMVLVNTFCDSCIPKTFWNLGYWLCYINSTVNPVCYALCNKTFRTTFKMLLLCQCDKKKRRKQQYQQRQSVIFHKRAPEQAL
Voltage-dependent L-type calcium channel subunit alpha-1C, sequence (P22002 whole entry): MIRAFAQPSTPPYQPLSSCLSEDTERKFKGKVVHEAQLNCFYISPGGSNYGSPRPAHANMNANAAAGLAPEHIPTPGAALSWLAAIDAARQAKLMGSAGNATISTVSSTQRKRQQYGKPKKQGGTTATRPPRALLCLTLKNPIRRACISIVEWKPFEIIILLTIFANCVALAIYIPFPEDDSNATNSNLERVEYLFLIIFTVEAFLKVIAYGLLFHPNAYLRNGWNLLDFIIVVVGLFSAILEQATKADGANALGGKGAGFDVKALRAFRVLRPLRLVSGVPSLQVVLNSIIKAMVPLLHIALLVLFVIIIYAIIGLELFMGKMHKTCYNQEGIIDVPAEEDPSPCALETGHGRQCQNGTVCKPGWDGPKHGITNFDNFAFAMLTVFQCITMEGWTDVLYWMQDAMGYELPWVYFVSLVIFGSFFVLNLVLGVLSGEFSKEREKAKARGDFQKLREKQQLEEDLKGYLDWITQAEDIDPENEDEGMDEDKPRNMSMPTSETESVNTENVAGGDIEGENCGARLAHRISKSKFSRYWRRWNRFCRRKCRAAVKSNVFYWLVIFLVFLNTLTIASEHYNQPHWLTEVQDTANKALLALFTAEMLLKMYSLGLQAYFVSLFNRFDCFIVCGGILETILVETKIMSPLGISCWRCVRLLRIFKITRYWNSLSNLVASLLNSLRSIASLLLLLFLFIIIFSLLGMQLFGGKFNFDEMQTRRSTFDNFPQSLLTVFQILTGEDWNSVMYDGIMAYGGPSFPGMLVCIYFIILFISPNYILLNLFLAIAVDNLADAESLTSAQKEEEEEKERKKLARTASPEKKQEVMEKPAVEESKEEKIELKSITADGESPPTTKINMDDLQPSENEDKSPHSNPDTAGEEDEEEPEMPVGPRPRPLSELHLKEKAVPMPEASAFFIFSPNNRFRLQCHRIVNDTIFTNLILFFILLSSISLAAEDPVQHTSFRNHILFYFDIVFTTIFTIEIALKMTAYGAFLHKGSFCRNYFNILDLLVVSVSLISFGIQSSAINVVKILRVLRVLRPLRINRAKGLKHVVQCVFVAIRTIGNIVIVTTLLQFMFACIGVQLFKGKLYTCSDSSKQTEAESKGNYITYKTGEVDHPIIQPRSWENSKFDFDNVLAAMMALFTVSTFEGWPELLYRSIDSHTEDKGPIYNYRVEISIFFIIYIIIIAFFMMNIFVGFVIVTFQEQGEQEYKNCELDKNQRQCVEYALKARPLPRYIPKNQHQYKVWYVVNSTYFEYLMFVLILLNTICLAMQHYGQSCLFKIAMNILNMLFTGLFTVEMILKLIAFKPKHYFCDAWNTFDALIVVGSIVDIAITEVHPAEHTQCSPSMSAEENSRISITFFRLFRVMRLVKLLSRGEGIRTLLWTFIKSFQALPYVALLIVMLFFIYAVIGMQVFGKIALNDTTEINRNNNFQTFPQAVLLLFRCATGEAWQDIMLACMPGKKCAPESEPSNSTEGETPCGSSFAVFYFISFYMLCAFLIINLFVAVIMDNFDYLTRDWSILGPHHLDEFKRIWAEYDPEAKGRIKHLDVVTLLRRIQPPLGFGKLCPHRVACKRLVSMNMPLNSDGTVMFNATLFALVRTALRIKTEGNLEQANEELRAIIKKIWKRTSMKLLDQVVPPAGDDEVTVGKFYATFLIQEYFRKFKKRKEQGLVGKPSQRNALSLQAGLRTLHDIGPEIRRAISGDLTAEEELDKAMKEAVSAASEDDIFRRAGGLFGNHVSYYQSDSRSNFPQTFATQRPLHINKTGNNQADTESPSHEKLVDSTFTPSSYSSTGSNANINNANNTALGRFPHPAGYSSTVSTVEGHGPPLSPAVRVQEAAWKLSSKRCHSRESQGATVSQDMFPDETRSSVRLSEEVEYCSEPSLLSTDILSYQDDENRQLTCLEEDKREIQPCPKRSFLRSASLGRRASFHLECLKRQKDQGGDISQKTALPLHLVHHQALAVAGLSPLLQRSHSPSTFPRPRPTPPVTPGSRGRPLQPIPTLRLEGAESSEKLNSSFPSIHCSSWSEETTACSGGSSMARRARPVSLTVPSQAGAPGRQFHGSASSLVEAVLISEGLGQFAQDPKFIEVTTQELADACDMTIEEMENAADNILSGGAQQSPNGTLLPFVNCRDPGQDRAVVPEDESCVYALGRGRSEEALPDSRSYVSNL

As to `CC[C@@H]([C@H](C)O)n1ncn(-c2ccc(N3CCN(c4ccc(OC[C@@H]5CO[C@@](Cn6cncn6)(c6ccc(F)cc6F)C5)cc4)CC3)cc2)c1=O` [POSACONAZOLE], the AC50 (usually the midpoint of the concentration-response curve, whichever way the signal moves) was > 30 µM at Progesterone receptor; > 30 µM in experiment [1]; > 1 µM in experiment [2]; > 30 µM in experiment [3]; > 30 µM in experiment [4].

With `CCC(=O)O[C@]1(C(=O)SCF)[C@H](C)C[C@H]2[C@@H]3C[C@H](F)C4=CC(=O)C=C[C@]4(C)[C@@]3(F)[C@@H](O)C[C@@]21C` [FLUTICASONE PROPIONATE], the AC50 in experiment [5], in experiment [1], in experiment [6], in experiment [2], in experiment [3] and in experiment [7] was > 30 µM in each case. Moreover, in experiment [4], the AC50 was > 30 µM.
